As a reminder, the IC50 is the midpoint of a concentration-inhibition curve.

The values that follow come from patent publication US5290795A, “Substituted urea compound and use” (Novo Nordisk N/A, priority 1990, dated 1994).

For experiment [1], the target named is T1, 5-HT3 receptor (Mus musculus, UniProt P23979).
T1 construct: Harvested cells were homogenized in Tris buffer; endogenous in cells; host or cells: N1E-115 mouse neuroblastoma cells
T1 sequence (P23979 24-489): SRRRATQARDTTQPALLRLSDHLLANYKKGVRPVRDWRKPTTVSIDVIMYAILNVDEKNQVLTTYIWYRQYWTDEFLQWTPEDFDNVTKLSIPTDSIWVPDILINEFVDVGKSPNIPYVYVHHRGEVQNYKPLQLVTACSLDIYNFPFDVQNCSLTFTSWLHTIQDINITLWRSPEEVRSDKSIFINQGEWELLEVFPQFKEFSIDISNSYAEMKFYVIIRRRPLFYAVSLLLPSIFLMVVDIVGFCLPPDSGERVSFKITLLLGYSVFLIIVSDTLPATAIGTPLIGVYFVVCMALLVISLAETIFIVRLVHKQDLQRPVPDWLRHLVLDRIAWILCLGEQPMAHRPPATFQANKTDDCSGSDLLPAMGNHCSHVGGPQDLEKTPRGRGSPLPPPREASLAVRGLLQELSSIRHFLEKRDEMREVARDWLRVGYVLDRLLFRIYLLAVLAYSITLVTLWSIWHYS
Description: 5-HT3 receptor binding to N1E-115 neuroblastoma cells (3H-Quipazine displacement). To be noted: for displacement of 3H-Quipazine binding: specificity of the assay, N1E-115 neuroblastoma cells, in words. On the procedure: 5-HT3 Receptor Binding to N1E-115 Neuroblastoma Cells
The binding of 3H-quipazine to N1E-115 neuroblastoma cells in-vitro was determined by a modification of the method of Hoyer and Neijt (Hoyer, D. and Neijt, H. C., 1988, Molecular Pharmacology, 33:303-309). […] The cells were grown to a density of 8-15×10^7 cells per bottle and harvested by vigorous shaking. Harvested cells were homogenized in Tris buffer (20 mm, pH=7.5) containing 154 mM NaCl using a Brinkmann Polytron. The homogenate was centrifuged at 900×g and the supernatant was used directly in the binding assay. The supernatant was diluted at a concentration of 2×10^6 cells per ml in Tris buffer. Binding assays consisted of 50 μL 3H-Quipazine (1 nM final concentration), 250 μL membrane suspension, and 200 μL drug or buffer. Nonspecific binding was determined by the addition of 10 μM MDL 72222. Tubes were incubated at […] for 60 minutes, followed by filtration through GFB filters under vacuum. The filters were then washed with ice-cold Tris buffer.

In experiment [2] the target is T2, 5-HT3 receptor (Cavia porcellus, UniProt O70212).
T2 construct: the terminal 15 cm of ileum removed, and 1.5-2.0 cm lengths prepared and mounted in 10 ml organ baths; from tissue; host or cells: isolated guinea pig terminal ileum
T2 sequence (O70212 24-490 limits assumed): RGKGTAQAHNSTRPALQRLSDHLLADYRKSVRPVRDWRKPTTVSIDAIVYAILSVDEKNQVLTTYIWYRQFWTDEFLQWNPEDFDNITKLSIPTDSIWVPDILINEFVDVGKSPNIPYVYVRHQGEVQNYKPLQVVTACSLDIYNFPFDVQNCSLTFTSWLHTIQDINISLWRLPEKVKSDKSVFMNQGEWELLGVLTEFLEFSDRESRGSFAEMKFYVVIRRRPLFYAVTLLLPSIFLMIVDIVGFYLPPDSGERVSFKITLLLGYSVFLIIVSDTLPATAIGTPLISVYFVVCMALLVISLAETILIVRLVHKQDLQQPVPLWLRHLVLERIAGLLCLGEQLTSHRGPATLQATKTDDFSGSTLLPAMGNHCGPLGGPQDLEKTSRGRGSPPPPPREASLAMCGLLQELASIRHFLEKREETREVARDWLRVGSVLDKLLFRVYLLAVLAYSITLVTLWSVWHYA
Description: Inhibition of 5-HT-induced contractions in isolated guinea pig ileum. The format is cell-based. Particulars: methysergide 10^-6 M, 20 min incubation, 5-HT contact time 30 sec, 37° C., read-out: A2 (concentration of the antagonist giving a dose ratio of 2) (converted). The method, then:
Inhibition of 5-HT-Induced Contractions in Isolated Guinea Pig Ileum
Compounds of formula (I) were tested for their 5HT3 -antagonist activity using the following method:
5-HT produces contractions of the guinea pig ileum via 2 different receptors. 1) direct contractions via 5-HT2 receptors on the muscle, 2) indirect contractions via 5-HT3 receptors on intrinsic gut neurones, producing acetylcholine release. By administering 5-HT to lengths of ileum in the presence of methysergide (to block 5-HT2 receptors) you can assay 5-HT3 receptor activity.
Guinea pigs were killed by means of cervical dislocation the terminal 15 cm of ileum removed, and 1.5-2.0 cm lengths prepared and mounted in 10 ml organ baths containing calcium deficient tyrodes of the following composition (mM) NaCl (136.9); KCl (2.68); CaCl2 (0.9); MgCl2 (1.05); NaCO3 (11.9); NaH2 PO4 (0.42); glucose (5.55) and containing methysergide (10^-6 M) maintained at 37° C. and gassed with 95% O2 and 5% CO2. The mechanical activity of the muscle was measured by a HSE 351 isometric transducer connected via a HSE bridge amplifier to a potentiometric pen recorder. […]
The maximum response to acetylcholine for each tissue is measured and the responses to 5-HT calculated as percentage maximum of the acetylcholine (Ach) maximum response in that tissue. The peak of the 5-HT response is measured. […]

Compound `CN1[C@@H]2CCC[C@H]1C[C@@H](NC(=O)Nc1ccsc1-c1nc(C3CC3)no1)C2` [Example 4, N-(2-(3-Cyclopropyl-1,2,4-oxadiazol-5-yl)-3-thienyl)-N^1 - (endo-9-methyl-9-azabicyclo[3.3.1]non-3yl)urea] returned a 50% inhibitory concentration (IC50) on 5-HT3 receptor [1] of 0.0067 µM. At 5-HT3 receptor [2], the Kb was 103 µM.

`CCCCc1noc(-c2sccc2NC(=O)N[C@H]2C[C@H]3CCC[C@@H](C2)N3C)n1` [Example 7, N-(2-(3-Butyl-1,2,4-oxadiazol-5-yl)-3-thienyl)-N^1-(endo-9-methyl-9-azabicyclo[3.3.1]non-3-yl)urea]: the IC50 at 5-HT3 receptor [1] was determined as 0.0023 µM. Moreover, the Kb on 5-HT3 receptor [2] is 24.8 µM.

Regarding `CCCN(CCC)C1CCc2cccc(O)c2C1` (stereo not shown) [Example 8-OH-DPAT], the “displacement of 3H-Quipazine binding” value on 5-HT3 receptor [1] is given as “inability”.

Regarding `CN1[C@@H]2CC[C@H]1C[C@@H](OC(=O)c1c[nH]c3ccccc13)C2` [ICS 205-930], on 5-HT3 receptor [1], the “displacement of 3H-Quipazine binding” value is “potent displacers”.

`CN1[C@@H]2CC[C@H]1C[C@@H](OC(=O)c1cc(Cl)cc(Cl)c1)C2` [MDL 72222]: the “displacement of 3H-Quipazine binding” value at 5-HT3 receptor [1] is “potent displacers”.

`O=C(c1ccc(F)cc1)C1CCN(CCn2c(=O)[nH]c3ccccc3c2=O)CC1` [ketanserin]: the “displacement of 3H-Quipazine binding” value at 5-HT3 receptor [1] is reported as “inability”.

`c1ccc2nc(N3CCNCC3)ccc2c1` [quipazine]: the “displacement of 3H-Quipazine binding” value on 5-HT3 receptor [1] is “potent displacers”.

For `COc1cc(N)c(Cl)cc1C(=O)NC1CN2CCC1CC2` (stereo not shown) [zacopride], the “displacement of 3H-Quipazine binding” value at 5-HT3 receptor [1] is “potent displacers”.
